The values below are quoted from earlier work in patent publication US20020066702A1, “Antibacterial and antibiofilm bonded permanent magnets” (priority 2000, published 2002).

One series concerns human fibroblast. The following applies: 24 hours after a 15 minute exposure to 1% povidone-iodine, 3% hydrogen peroxide or 0.5% sodium hypochlorite.
Series [1] concerns full thickness dermal wounds on the backs of rats. The following applies: eight days after initial irrigation with 1% povidone-iodine or 0.5% sodium hypochlorite.

On to “polyvinylpyrrolidone-iodine complex [povidone-iodine]”, for which the fibroblast survival result with human fibroblast is given as “no fibroblasts survived”. In addition, the re-epithelialization result in series [1] was “substantially and statistically significantly inhibited”.

For the molecule `OO` [hydrogen peroxide], the fibroblast survival entry with human fibroblast is on record as “no fibroblasts survived”.

Turning to `OCl` [sodium hypochlorite], in the series on human fibroblast, the fibroblast survival result is given as “no fibroblasts survived”. For the same molecule, the re-epithelialization result in series [1] was “substantially and statistically significantly inhibited”.
